Data: US20060025566A1, “Macrocyclic modulators of the ghrelin receptor” (Tranzyme Pharma Inc., priority 2003, published 2006)
Like-named read-outs stand apart in the source and are kept apart here.

Molecular target: T1, human growth hormone secretagogue receptor (hGHS-R1a) (Homo sapiens, UniProt Q92847)
T1 construct: purchased PerkinElmer BioSignal #RBHGHSM, lot#1887; host or cells: HEK-293, stably transfected (membranes)
Experiment: Competitive radioligand binding assay (ghrelin receptor), [125I]-ghrelin displacement on GHS-R/HEK 293 membranes
Procedure: The competitive binding assay at the human growth hormone secretagogue receptor (hGHS-R1a) was carried out analogously to assays described in the literature.
Multiscreen Harvest plates-GF/C (Millipore, #MAHFC 1H60) • 4. […] Bottom seal (Millipore, #MATAH0P00) • 7. […] Binding Buffer: 25 mM Hepes (pH 7.4), 1 mM CaCl2, 5 mM MgCl2, 2.5 mM EDTA, 0.4% BSA Assay Volumes
Competition experiments were performed in a 300 μl filtration assay format. • 1. 220 μL of membranes diluted in binding buffer • 2. 40 μL of compound diluted in binding buffer • 3. […] Compound Handling
Compounds were provided frozen on dry ice at a stock concentration of 10 mM diluted in 100% DMSO and stored at −80° C. until the day of testing. On the test day, compounds were allowed to thaw at rt O/N and then diluted in assay buffer according to the desired test concentrations.
Plates were sealed with TopSeal-A, vortexed gently and incubated at rt for 30 min. The reaction was arrested by filtering samples through Multiscreen Harvest plates (pre-soaked in 0.5% polyethyleneimine) using a Tomtec Harvester, washed 9 times with 500 μL of cold 50 mM Tris-HCl (pH 7.4, 4° C.), and then plates were air-dried in a fumehood for 30 min. A bottom seal was applied to the plates prior to the addition of 25 μL of MicroScint-0 to each well. […] Results were expressed as counts per minute (cpm).
Data were analyzed by GraphPad Prism (GraphPad Software, San Diego, Calif.) using a variable slope non-linear regression analysis.
• 1. […] Key Aspects of Method • 1. […] Results

[1] = Table 3E, human ghrelin receptor, read-out: Ki
[2] = binding activity at the human ghrelin receptor, [125I]-ghrelin competition, GHS-R/HEK 293 membranes, read-out: Ki
[3] = [125I]-ghrelin competition, GHS-R/HEK 293 membranes, Table 3A, read-out: Binding Activity at the Human Ghrelin Receptor
[4] = second table titled 3C (compounds 435-449), human ghrelin receptor, read-out: Ki
[5] = binding activity at the human ghrelin receptor, [125I]-ghrelin displacement, read-out: Ki
[6] = Table 3C (compounds 18, 334-397), human ghrelin receptor, read-out: Ki

T1 sequence (Q92847 whole entry): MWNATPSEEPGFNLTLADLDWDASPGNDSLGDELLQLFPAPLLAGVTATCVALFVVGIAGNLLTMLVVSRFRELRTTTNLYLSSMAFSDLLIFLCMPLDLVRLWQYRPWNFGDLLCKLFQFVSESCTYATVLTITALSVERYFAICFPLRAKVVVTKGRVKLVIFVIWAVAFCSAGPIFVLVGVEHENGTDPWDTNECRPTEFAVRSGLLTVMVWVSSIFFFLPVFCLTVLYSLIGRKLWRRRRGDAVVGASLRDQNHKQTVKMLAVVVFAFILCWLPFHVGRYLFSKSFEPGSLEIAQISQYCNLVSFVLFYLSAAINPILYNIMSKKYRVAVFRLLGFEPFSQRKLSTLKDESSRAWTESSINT

For `CCC[C@@H]1NCCOc2ccccc2CCCNC(=O)[C@@H](Cc2ccccc2)NC(=O)[C@@H]2CCCN2C1=O`, the Ki [1] was 1000 to 10000 nM.
For `CCC[C@@H]1NCCOc2ccccc2CCCNC(=O)[C@@H](Cc2ccccc2)NC(=O)[C@H]2CCCN2C1=O`, the Ki [1] was 100 to 1000 nM.
Compound `CCC[C@@H]1NCCOc2ccccc2CCCNC(=O)[C@H](Cc2ccccc2)NC(=O)[C@@H]2CCCN2C1=O` has a Ki [1] of 1000 to 10000 nM.
For `CCC[C@@H]1NCCOc2ccccc2CCCNC(=O)[C@H](Cc2ccccc2)NC(=O)[C@H]2CCCN2C1=O`, the Ki [1] was 1000 to 10000 nM.
For `CCC(C)[C@@H]1NCCOc2ccccc2CCCNC(=O)[C@@H](Cc2ccccc2)NC(=O)[C@H]2C[C@H](O)CN2C1=O` (some centres unmarked), the Ki [1] was greater than 10000 nM.
Compound `C[C@@H]1C(=O)N[C@H](Cc2ccccc2)C(=O)NCCCc2ccccc2OCCN2CCC[C@H]2C(=O)N1C` has a Ki [1] of 100 to 1000 nM.
For `CCC(C)[C@@H]1NCCOc2ccccc2CCCNC(=O)[C@@H](Cc2ccccc2)N2CC[C@@H](NC1=O)C2=O` (some centres unmarked), the Ki [1] was 100 to 1000 nM.
Compound `CCC(C)[C@@H]1NCCOc2ccccc2CCCNC(=O)[C@@H](Cc2ccccc2)N2CC[C@H](NC1=O)C2=O` (some centres unmarked) has a Ki [1] greater than 10000 nM.
With `CCC(C)[C@@H]1NCCOc2ccccc2CCCNC(=O)[C@@H](Cc2ccccc2)N2CC[C@H](C2=O)N(C)C1=O` (some centres unmarked) the Ki [1] was 10 to 100 nM.
`CCC(C)[C@@H]1NCCOc2ccccc2CCCNC(=O)[C@@H](Cc2ccccc2)N2CC[C@@H](C2=O)N(C)C1=O` (some centres unmarked) was tested, and the Ki [1] was 100 to 1000 nM.
Work on `CCC1NCCOc2ccccc2C=CCNC(=O)C(Cc2ccccc2)NC(=O)C2(CCCC2)NC1=O` (single isomer, unassigned) [136a] yielded a Ki [2] of 10 to 100 nM.
`CCC1NCCOc2ccccc2/C=C/CNC(=O)C(Cc2ccccc2)NC(=O)C2(CCCC2)NC1=O` (single isomer, unassigned) [136b] gave a Ki [2] of 100 to 1000 nM.
In the case of `CCC(C)C1NCCOc2ccccc2CCCNC(=O)C(Cc2ccccc2)NC(=O)C(C(C)C)N(C)C1=O` (single isomer, unassigned) [145a], the Ki [2] is reported as 100 to 1000 nM.
`CCC(C)C1NCCOc2ccccc2CCCNC(=O)C(Cc2ccccc2)NC(=O)C(C(C)C)N(C)C1=O` (single isomer, unassigned) [145b] showed a Ki [2] greater than 1000 nM.
Work on `CCC(C)C1NCCc2ccccc2CCCCNC(=O)C(Cc2ccccc2)NC(=O)C(C)N(C)C1=O` (single isomer, unassigned) [189a] yielded a Ki [3] of 100 to 1000 nM.
`CCC(C)C1NCCOc2ccccc2/C=C/CNC(=O)C(CO)NC(=O)C2(CCCC2)NC1=O` (single isomer, unassigned) [442a] was tested, and the Ki [4] was greater than 10000 nM.
`CCC(C)C1NCCOc2ccccc2/C=C/CNC(=O)C(COC)NC(=O)C2(CCCC2)NC1=O` (single isomer, unassigned) [443a] gave a Ki [4] greater than 10000 nM.
For `CC(C)CC1NCCOc2ccccc2/C=C/CNC(=O)C(Cc2c[nH]cn2)NC(=O)C2(CCCC2)NC1=O` (single isomer, unassigned) [444a], the Ki [4] was greater than 10000 nM.
`CC1C(=O)NC(Cc2ccc(F)cc2)C(=O)NCCOCCOCCNC(C2CC2)C(=O)N1C` (single isomer, unassigned) [446a] gave a Ki [4] of 1000 to 10000 nM.
In the case of `CC(C)CC1NCCOc2ccccc2C=CCNC(=O)C(Cc2ccccn2)NC(=O)C2(CCCC2)NC1=O` (stereo in doubt) [160a], the Ki [3] is reported as greater than 1000 nM.
With `CCC[C@@H]1NC(=O)[C@@H](C(C)C)NCCOc2ccccc2C=CCNC(=O)[C@H](Cc2ccccc2)NC1=O` (stereo in doubt) [compound 13] the Ki [2] was 100 to 1000 nM.
Compound `CC[C@H](C)[C@@H]1NCCOc2ccccc2C=CCNC(=O)[C@H](Cc2ccccc2)NC(=O)[C@@H](C)NC1=O` (stereo in doubt) [compound 14] has a Ki [2] of 100 to 1000 nM.
`CC(C)C[C@@H]1NCCOc2ccccc2C=CCNC(=O)[C@H](CCC(=O)O)NC(=O)C2(CCCC2)NC1=O` (stereo in doubt) [compound 45] was tested, and the Ki [2] was greater than 10000 nM.
`CC(C)C[C@@H]1NCCOc2ccccc2C=CCNC(=O)[C@H](C(C)C)NC(=O)C2(CCCC2)NC1=O` (stereo in doubt) [compound 46] gave a Ki [2] greater than 10000 nM.
With `O=C1NC2(CCCC2)C(=O)N[C@@H](Cc2ccccc2)C(=O)NCC=Cc2ccccc2OCCN[C@H]1Cc1ccccc1Cl` (stereo in doubt) [compound 122] the Ki [2] was 100 to 1000 nM.
`O=C1NC2(CCCC2)C(=O)N[C@@H](Cc2ccccc2)C(=O)NCC=Cc2ccccc2OCCN[C@H]1Cc1cccc(Cl)c1` (stereo in doubt) [compound 123] gave a Ki [2] of 100 to 1000 nM.
`O=C1NC2(CCCC2)C(=O)N[C@@H](Cc2ccccc2)C(=O)NCC=Cc2ccccc2OCCN[C@H]1Cc1ccc(Cl)cc1` (stereo in doubt) [compound 124] showed a Ki [2] of 1000 to 10000 nM.
Work on `O=C1NC2(CCCC2)C(=O)N[C@@H](Cc2ccccc2)C(=O)NCC=Cc2ccccc2OCCN[C@H]1CCc1ccccc1` (stereo in doubt) [compound 126] yielded a Ki [2] of 100 to 1000 nM.
`O=C1NC2(CCCC2)C(=O)N[C@@H](Cc2ccccc2)C(=O)NCC=Cc2ccccc2OCCN[C@H]1Cc1ccc(-c2ccccc2)cc1` (stereo in doubt) [compound 128] was tested, and the Ki [2] was greater than 10000 nM.
`O=C1NC2(CCCC2)C(=O)N[C@@H](Cc2ccccc2)C(=O)NCC=Cc2ccccc2OCCN[C@H]1Cc1ccncc1` (stereo in doubt) [compound 133] was tested, and the Ki [2] was greater than 1000 nM.
Work on `O=C1NC2(CCCC2)C(=O)NC(Cc2ccccc2)C(=O)NCC=Cc2ccccc2OCCNC1Cc1cccs1` (stereo in doubt) [compound 135] yielded a Ki [2] of 100 to 1000 nM.
In the case of `CC[C@H](C)[C@@H]1NCCOc2ccccc2C=CCNC(=O)[C@H](Cc2ccccc2)NC(=O)C2(CCCC2)NC1=O` (stereo in doubt) [compound 138], the Ki [2] is reported as 10 to 100 nM.
Work on `CC(C)[C@@H]1NCCOc2ccccc2C=CCNC(=O)[C@H](Cc2ccccc2)NC(=O)C2(CCCCC2)NC1=O` (stereo in doubt) [compound 139] yielded a Ki [2] of 100 to 1000 nM.
Work on `CC(C)C1NCCOc2ccccc2C=CCNC(=O)C(Cc2ccccc2)NC(=O)C2(CCSCC2)NC1=O` (stereo in doubt) [compound 143] yielded a Ki [2] of 100 to 1000 nM.
In the case of `CC(C)C[C@@H]1NCCOc2ccccc2C=CCNC(=O)[C@H](CCc2ccccc2)NC(=O)C2(CCCC2)NC1=O` (stereo in doubt) [compound 155], the Ki [2] is reported as greater than 500 nM.
For `CC(C)C[C@@H]1NCCOc2ccccc2C=CCNC(=O)[C@H](Cc2ccc(-c3ccccc3)cc2)NC(=O)C2(CCCC2)NC1=O` (stereo in doubt) [compound 157], the Ki [3] was 100 to 1000 nM.
In the case of `CC(C)C[C@@H]1NCCOc2ccccc2C=CCNC(=O)[C@H](Cc2ccc3ccccc3c2)NC(=O)C2(CCCC2)NC1=O` (stereo in doubt) [compound 159], the Ki [3] is reported as 10 to 100 nM.
`CC(C)C[C@@H]1NCCOc2ccccc2C=CCNC(=O)[C@H](Cc2cccs2)NC(=O)C2(CCCC2)NC1=O` (stereo in doubt) [compound 164] was tested, and the Ki [3] was 100 to 1000 nM.
With `CC[C@@H]1NC(=O)C2(CCCC2)NC(=O)[C@H](CC(C)C)NCCOc2ccccc2C=CCNC1=O` (stereo in doubt) [compound 165] the Ki [3] was greater than 10000 nM.
With `CC(C)[C@@H]1NCCOc2ccccc2C=CCNC(=O)[C@H](Cc2ccccc2)NC(=O)C2(CC2)NC1=O` (stereo in doubt) [compound 199] the Ki [3] was 100 to 1000 nM.
`CC(C)C[C@H]1C(=O)NC2(CCCC2)C(=O)N[C@@H](Cc2ccccc2)C(=O)NCC=Cc2ccccc2OCCN1C` (stereo in doubt) [compound 203] gave a Ki [3] of 1000 to 10000 nM.
With `CC(C)C1NCCOc2ccccc2C=CCNC(=O)C(Cc2ccccc2)NC(=O)C2(CCNCC2)NC1=O` (stereo in doubt) [compound 211] the Ki [3] was greater than 1000 nM.
In the case of `C[C@@H]1C(=O)N[C@H](Cc2ccc(Cl)cc2)C(=O)NCC=Cc2ccccc2OCCN[C@@H](C2CC2)C(=O)N1C` (stereo in doubt) [compound 308], the Ki [5] is reported as 0.1 to 10 nM.
With `CC1(C)NCCOc2ccccc2C=CCNC(=O)[C@H](Cc2cccc(Cl)c2)NC(=O)C2(CCCC2)NC1=O` (stereo in doubt) [compound 349] the Ki [6] was 10 to 100 nM.
`CC1(C)NCCOc2ccccc2C=CCNC(=O)[C@H](Cc2cccc(Cl)c2)NC(=O)C(C)(C)NC1=O` (stereo in doubt) [compound 350] showed a Ki [6] of 100 to 1000 nM.
For `C[C@@H]1NC(=O)C2(CCCC2)NCCOc2ccccc2C=CCNC(=O)[C@H](Cc2cccc(Cl)c2)NC1=O` (stereo in doubt) [compound 352], the Ki [6] was 100 to 1000 nM.
Work on `CC[C@H](C)[C@@H]1NCCOc2ccccc2CCCNC(=O)C(Cc2cccc(Cl)c2)NC(=O)C2(CCCC2)NC1=O` (stereo in doubt) [compound 369] yielded a Ki [5] of 10 to 100 nM.
`CCC(C)C1NCCOc2ccccc2CCCNC(=O)C(Cc2ccccc2)NC(=O)C(C(C)CC)N(C)C1=O` (centres unmarked) [150a] was tested, and the Ki [2] was 100 to 1000 nM.
`CCC(C)C1NCCOc2ccccc2CCCNC(=O)C(Cc2ccccc2)N2CCC(C2=O)N(C)C1=O` (stereo not drawn) [230 diastereomer] showed a Ki [1] of 1000 to 10000 nM.
For `CCC(C)C1NCCOc2ccccc2CCCNC(=O)C(Cc2ccccn2)NC(=O)C(C)N(C)C1=O` (centres unmarked) [compound 32], the Ki [2] was 10 to 100 nM.
Work on `CCC(C)C1NCCOc2ccccc2CCCNC(=O)C(Cc2ccccc2)NC(=O)C(CC)N(C)C1=O` (centres unmarked) [compound 41] yielded a Ki [2] of 10 to 100 nM.
For `CC(C)CC1NCCOc2ccccc2C=CCNC(=O)C(CC(C)C)NC(=O)C2(CCCC2)NC1=O` (centres unmarked) [compound 47], the Ki [2] was greater than 10000 nM.
`CCC[C@@H]1NCCOc2ccccc2CCCNC(=O)[C@@H](C)NC(=O)CN(C)C1=O` [compound 49] showed a Ki [2] greater than 10000 nM.
